Test results published in the NIST ThermoML archive (doi:10.1021/je050367p).

What was measured:
[1] = xn = mol fraction of the nth substance listed; settings: Liquid; for viscosity: Capillary tube (Ostwald / Ubbelohde) method
[2] = refractive index (Na D-line) (dimensionless); xn = mol fraction of the nth substance listed; settings: 100.8 kPa, Liquid, Standard Abbe refractometry

CC(C)OC(C)C [diisopropyl ether] + CC(C)CC(C)(C)C
[1], 100.8 kPa
Settings	mass density, 288.15 K [kg/m3]	mass density, 298.15 K [kg/m3]	mass density, 308.15 K [kg/m3]	viscosity, 288.15 K [mPa·s]	viscosity, 298.15 K [mPa·s]	viscosity, 308.15 K [mPa·s]
x1 = 0.05	697.2	688.86	680.44	0.523	0.468	0.422
x1 = 0.1	698.46	690.03	681.52	0.511	0.456	0.412
x1 = 0.15	699.73	691.23	682.62	0.498	0.445	0.402
x1 = 0.2	701.06	692.45	683.75	0.486	0.435	0.393
x1 = 0.25	702.44	693.75	684.95	0.474	0.425	0.384
x1 = 0.3	703.86	695.08	686.17	0.463	0.415	0.375
x1 = 0.35	705.33	696.43	687.42	0.452	0.406	0.367
x1 = 0.4	706.84	697.84	688.72	0.442	0.397	0.359
x1 = 0.45	708.37	699.26	690.03	0.432	0.388	0.351
x1 = 0.5	709.97	700.76	691.42	0.423	0.38	0.343
x1 = 0.55	711.64	702.32	692.86	0.414	0.372	0.336
x1 = 0.6	713.36	703.94	694.35	0.405	0.364	0.329
x1 = 0.65	715.15	705.61	695.92	0.397	0.357	0.323
x1 = 0.7	716.97	707.32	697.5	0.389	0.35	0.316
x1 = 0.75	718.85	709.08	699.14	0.382	0.343	0.31
x1 = 0.8	720.8	710.9	700.83	0.375	0.337	0.305
x1 = 0.85	722.8	712.78	702.59	0.368	0.33	0.299
x1 = 0.9	724.9	714.75	704.42	0.361	0.325	0.294
x1 = 0.9499	727	716.73	706.28	0.354	0.319	0.288
x1 = 1	729.09	718.7	708.12	0.348	0.313	0.283

refractive index, [2]
Settings	288.15 K	298.15 K	308.15 K
x1 = 0.05	1.39293	1.38786	1.38277
x1 = 0.1	1.39183	1.38672	1.38159
x1 = 0.15	1.39072	1.38557	1.38042
x1 = 0.2	1.3896	1.38443	1.37924
x1 = 0.25	1.38846	1.38326	1.37803
x1 = 0.3	1.38733	1.38209	1.37682
x1 = 0.35	1.38619	1.38092	1.37561
x1 = 0.4	1.38504	1.37974	1.3744
x1 = 0.45	1.3839	1.37856	1.37317
x1 = 0.5	1.38274	1.37737	1.37195
x1 = 0.55	1.38158	1.37618	1.37072
x1 = 0.6	1.38042	1.37499	1.36949
x1 = 0.65	1.37926	1.3738	1.36826
x1 = 0.7	1.37809	1.37259	1.36703
x1 = 0.75	1.37691	1.37138	1.36578
x1 = 0.8	1.37573	1.37016	1.36452
x1 = 0.85	1.37456	1.36896	1.36327
x1 = 0.9	1.37337	1.36774	1.36201
x1 = 0.9499	1.37217	1.3665	1.36073
x1 = 1	1.37093	1.36524	1.35944

CC(C)OC(C)C [diisopropyl ether] + CCO
[1], 100.5 kPa
Settings	mass density, 288.15 K [kg/m3]	mass density, 298.15 K [kg/m3]	mass density, 308.15 K [kg/m3]	viscosity, 288.15 K [mPa·s]	viscosity, 298.15 K [mPa·s]	viscosity, 308.15 K [mPa·s]
x1 = 0.05	788.65	779.96	771.13	1.176	0.975	0.814
x1 = 0.1	783.6	774.78	765.84	1.046	0.875	0.736
x1 = 0.15	779.02	770.05	760.98	0.946	0.793	0.67
x1 = 0.2	774.89	765.79	756.58	0.85	0.719	0.612
x1 = 0.25	770.69	761.45	752.16	0.771	0.656	0.562
x1 = 0.3	766.92	757.63	748.12	0.705	0.603	0.52
x1 = 0.35	763.36	753.93	744.32	0.648	0.558	0.484
x1 = 0.4	760.02	750.47	740.76	0.599	0.519	0.453
x1 = 0.45	756.93	747.28	737.5	0.558	0.486	0.426
x1 = 0.5	753.87	744.13	734.3	0.523	0.458	0.403
x1 = 0.55	750.98	741.18	731.25	0.493	0.432	0.383
x1 = 0.6	748.29	738.39	728.37	0.468	0.412	0.365
x1 = 0.65	745.73	735.73	725.59	0.444	0.392	0.35
x1 = 0.7	743.19	733.1	722.86	0.423	0.376	0.336
x1 = 0.7499	740.73	730.59	720.23	0.407	0.362	0.324
x1 = 0.8	738.4	728.19	717.79	0.392	0.35	0.314
x1 = 0.85	735.94	725.76	715.31	0.378	0.339	0.305
x1 = 0.9	733.6	723.36	712.89	0.367	0.329	0.297
x1 = 0.95	731.15	720.98	710.53	0.357	0.32	0.289
x1 = 1	729.09	718.7	708.12	0.348	0.313	0.283

refractive index, [2]
Settings	288.15 K	298.15 K	308.15 K
x1 = 0.05	1.36501	1.36077	1.35646
x1 = 0.1	1.36653	1.3621	1.35763
x1 = 0.15	1.36768	1.3631	1.3585
x1 = 0.2	1.3686	1.36392	1.35923
x1 = 0.25	1.36935	1.36456	1.35977
x1 = 0.3	1.36998	1.3651	1.36021
x1 = 0.35	1.37047	1.3655	1.36052
x1 = 0.4	1.37086	1.36582	1.36077
x1 = 0.45	1.37117	1.36608	1.36093
x1 = 0.5	1.3714	1.3663	1.36103
x1 = 0.55	1.37159	1.36642	1.36107
x1 = 0.6	1.37174	1.36648	1.36109
x1 = 0.65	1.37183	1.36649	1.36108
x1 = 0.7	1.37187	1.36646	1.36098
x1 = 0.7499	1.37187	1.36638	1.36085
x1 = 0.8	1.37181	1.36627	1.36068
x1 = 0.85	1.37167	1.36611	1.36044
x1 = 0.9	1.3715	1.36588	1.36019
x1 = 0.95	1.3712	1.36558	1.35986
x1 = 1	1.37093	1.36524	1.35944
